Biological target: Factor D (Homo sapiens (Human), UniProt P00746)
Assay: biochemical
Type: biochemical
Conditions: read-out: IC50

Factor D, sequence (P00746 26-253): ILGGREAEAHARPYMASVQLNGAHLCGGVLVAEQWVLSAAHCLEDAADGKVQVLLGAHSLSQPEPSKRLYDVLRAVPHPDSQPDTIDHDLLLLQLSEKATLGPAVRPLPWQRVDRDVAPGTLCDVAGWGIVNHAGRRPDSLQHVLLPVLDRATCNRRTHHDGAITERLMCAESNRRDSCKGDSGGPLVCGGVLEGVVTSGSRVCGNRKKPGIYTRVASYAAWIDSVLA

| SMILES | IC50 [nM] |
| --- | --- |
| COC(=O)COc1ccc2c(C(N)=O)cn(CC(=O)N3C[C@H](F)C[C@H]3C(=O)NCc3cccc(Cl)c3F)c2c1 [Example 592, (3-Carbamoyl-1-{2-[(2S,4R)-2-(3-chloro-2-fluoro-benzylcarbamoyl)-4-fluoro-pyrrolidin-1-yl]-2-oxo-ethyl}-1H-indol-6-yloxy)-acetic acid methyl ester] | 115 |
| NC(=O)c1cn(CC(=O)N2C[C@H](F)C[C@H]2C(=O)NCc2cccc(Cl)c2F)c2cc(OCC(=O)O)ccc12 [Example 593, (3-Carbamoyl-1-{2-[(2S,4R)-2-(3-chloro-2-fluoro-benzylcarbamoyl)-4-fluoro-pyrrolidin-1-yl]-2-oxo-ethyl}-1H-indol-6-yloxy)-acetic acid] | 56 |
| NC(=O)c1cn(CC(=O)N2C[C@H](F)C[C@H]2C(=O)NCc2cccc(Cl)c2F)c2cc(OCCO)ccc12 [Example 594, 1-{2-[(2S,4R)-2-(3-Chloro-2-fluoro-benzylcarbamoyl)-4-fluoro-pyrrolidin-1-yl]-2-oxo-ethyl}-6-(2-hydroxy-ethoxy)-1H-indole-3-carboxylic acid amide] | 85 |
| CC(=O)c1cn(CC(=O)N2C[C@H](F)C[C@H]2C(=O)NCc2cccc(Cl)c2F)c2cc(CC(=O)O)ccc12 [Example 595, (3-Acetyl-1-{2-[(2S,4R)-2-(3-chloro-2-fluoro-benzylcarbamoyl)-4-fluoro-pyrrolidin-1-yl]-2-oxo-ethyl}-1H-indol-6-yl)-acetic acid] | 41 |
| CC(=O)c1cn(CC(=O)N2[C@@H]3C[C@@H]3C[C@H]2C(=O)NCc2cccc(Cl)c2F)c2cc(CC(=O)O)ccc12 [Example 596, (3-Acetyl-1-{2-[(1R,3S,5R)-3-(3-chloro-2-fluoro-benzylcarbamoyl)-2-aza-bicyclo[3.1.0]hex-2-yl]-2-oxo-ethyl}-1H-indol-6-yl)-acetic acid] | 95 |
| CC(=O)c1cn(CC(=O)N2C[C@H](F)C[C@H]2C(=O)NCc2cccc(Cl)c2F)c2cc(C(=O)O)ccc12 [Example 597, 3-Acetyl-1-{2-[(2S,4R)-2-(3-chloro-2-fluoro-benzylcarbamoyl)-4-fluoro-pyrrolidin-1-yl]-2-oxo-ethyl}-1H-indole-6-carboxylic acid] | 14 |
| CC(=O)c1cn(CC(=O)N2[C@@H]3C[C@@H]3C[C@H]2C(=O)NCc2cccc(Cl)c2F)c2cc(C(=O)O)ccc12 [Example 598, 3-Acetyl-1-{2-[(1R,3S,5R)-3-(3-chloro-2-fluoro-benzylcarbamoyl)-2-aza-bicyclo[3.1.0]hex-2-yl]-2-oxo-ethyl}-1H-indole-6-carboxylic acid] | 14 |
| CC(=O)c1cn(CC(=O)N2C[C@](C)(F)C[C@H]2C(=O)NCc2cccc(Cl)c2F)c2cc(C(=O)O)ccc12 [Example 599, 3-Acetyl-1-{2-[(2S,4R)-2-(3-chloro-2-fluoro-benzylcarbamoyl)-4-fluoro-4-methyl-pyrrolidin-1-yl]-2-oxo-ethyl}-1H-indole-6-carboxylic acid] | 46 |
| CC(=O)c1cn(CC(=O)N2[C@@H]3C[C@@H]3C[C@H]2C(=O)NCc2cccc(Cl)c2F)c2c(C(=O)O)cccc12 [Example 601, 3-Acetyl-1-{2-[(1R,3S,5R)-3-(3-chloro-2-fluoro-benzylcarbamoyl)-2-aza-bicyclo[3.1.0]hex-2-yl]-2-oxo-ethyl}-1H-indole-7-carboxylic acid] | 110 |
| CC(=O)c1cn(CC(=O)N2C[C@H](F)C[C@H]2C(=O)NCc2cccc(Cl)c2F)c2cc(OCc3ccc(C(=O)O)cc3)ccc12 [Example 602, 4-(3-Acetyl-1-{2-[(2S,4R)-2-(3-chloro-2-fluoro-benzylcarbamoyl)-4-fluoro-pyrrolidin-1-yl]-2-oxo-ethyl}-1H-indol-6-yloxymethyl)-benzoic acid] | 227 |
| CC(=O)c1cn(CC(=O)N2[C@@H]3C[C@@H]3C[C@H]2C(=O)NCc2cccc(Cl)c2F)c2ccc(C(=O)O)cc12 [Example 603, 3-Acetyl-1-{2-[(1R,3S,5R)-3-(3-chloro-2-fluoro-benzylcarbamoyl)-2-aza-bicyclo[3.1.0]hex-2-yl]-2-oxo-ethyl}-1H-indole-5-carboxylic acid] | 1610 |
